Assay results reported in publication PMC11475281, “A Novel Liver Cancer-Selective Histone Deacetylase Inhibitor Is Effective against Hepatocellular Carcinoma and Induces Durable Responses with Immunotherapy” (ACS Pharmacology & Translational Science, 2024).

Columns and labels:
healthy C57Bl/6 mice = experiment: Maximum tolerated dose determination; type: in vivo; settings: 100 mg/kg i.p. daily for 6 days
Description: (§1) Based on the data from the aforementioned in vitro studies, we selected STR-V-53 as a candidate for further evaluation in xenograft and murine models of HCC. Before the efficacy studies, we first determined the plasma stability (murine and human) and maximum tolerated dose (MTD) of STR-V-53 in healthy C57Bl/6 mice. […]. For MTD determination, STR-V-53 was administered via i.p. injection using a formulation containing excipients found in FDA-approved drugs—dimethylacetamide (DMA)/Cremophor RH 40 (CRH)/Water (10%/20%/70%)—that we developed.[17] […]
(§2) Then cells were treated with another 500 µL of 100 ug/mL PI staining at room temperature for 30 min. The cell cycle was analyzed with BD FACS Aria Illu analyzer, and the data were […]
(§3) The stability of STR-V-53 in murine and human plasmas was determined through a contract agreement with Cyprotex, an Evotec Company (https://www.cyprotex.com) […]
(§4) days in Kolliphor/DMA/water vehicle. We measured body weight and monitored daily food consumption, overall health, and mortality. […]
(§5) C57Bl/6 mice, 6–8 weeks old, 3 males and 3 females per treatment group, were injected intraperitoneally with STR-V-53 at […] in Kolliphor/DMA/water vehicle. Eight hours after the injection, organs were harvested and frozen at −80 °C for subsequent quantification by LC-

[1] = test system: Hep-G2-Red-FLuc intrahepatic tumors; experiment: Orthotopic xenograft model of Hep-G2-Red-FLuc human HCC; type: in vivo, mice
Description: Next, we evaluated the effects of STR-V-53 on tumor growth in an orthotopic murine model of Hep-G2-Red-FLuc Bioware Brite Cell Line (PerkinElmer) in mice. Mice (6–8 weeks old) were orthotopically implanted through a direct intrahepatic artery injection with Hep-G2-Red-FLuc cells according to published protocols.[38] We used the Red-Fluc expression to confirm tumor implantation by bioluminescent imaging using IVIS. Treatment began after imaging confirmed the establishment of intrahepatic tumors (approximately 7 days). Mice were grouped into cohorts with similar average relative chemiluminescence. Tumor-bearing mice in the treatment groups were injected daily with 200 μL of solution of STR-V-53, SORA, or a combination of STR-V-53 and SORA for 21 days via the i.p. route. No treatment group received vehicle only. After treatment, mice were imaged again, sacrificed, and liver samples were harvested to determine the effects of treatment on tumor size by measurement with calipers. […] Moreover, the combination therapy of SORA (10 mg/kg) and STR-V-53 (25 mg/kg) is more efficacious than either drug as a standalone agent.
Signaling Technology), respectively, for immunostaining. […]
(Armenian Hamster monoclonal antibody, clone 2H8, Millipore). Positive cells were counted from five random fields for each HCC tissue section. […]
monitored by high-frequency ultrasonography. […]

hERG = hERG (Homo sapiens, UniProt Q12809); experiment: In vitro hERG inhibition assay; settings: maximum tested concentration of 100 μM
Hep-G2 cells = experiment: RNA-seq gene set enrichment analysis (Hallmark and GOBP GSEA); type: cell-based, human; settings: 24 h
Description: To obtain transcriptome level evidence that may shed light on the HCC-selectivity and/or the enhanced potency of the combination of STR-V-53 with anti-PD-1 antibody, we performed RNA sequencing (RNA-seq) analysis on STR-V-53-treated Hep-G2 cells, incubated at IC50 and 2× IC50 for 24 h, relative to the untreated (DMSO) control. We first conducted gene set enrichment analysis (GSEA) using hallmark and gene ontology biological process (GOBP) gene sets to analyze the effect of STR-V-53 vs DMSO-treated control on the Hep-G2 transcriptome.[42],[43] […] Negative enrichment of the G2 M checkpoint pathway supports the finding that STR-V-53 induced S phase arrest in Hep-G2 cells (see Figure 4). […]
and allowed to grow for 48 hours.
RCF, with this washing step repeated twice. Next, using RNeasy Plus Mini Kit and Qiagen QIAcube […]
determined using a DeNovix spectrophotometer. Subsequently, quality control of the RNA samples was […]
(base call error rate of […]).
FASTQ files of samples were analyzed through the RNA-seq pipeline provided by the Gryder lab1. Reads were aligned to hg38 using STAR version 2.5.3a, and gene expression was calculated as Transcripts per Million mapped reads (TPM) using RSEM version 1.3.3 and filtered for coding genes. Differentially expressed genes lists were generated for each sample by calculating log2 fold change of the averaged sample TPM versus the averaged DMSO-treated control cells TPM and filtering for genes with |log2 fold change| > -1 and false discovery rate < 0.25. Hallmark2 and gene ontology biological processes (GOBP)3 gene set enrichment analysis (GSEA) was performed on the differentially expressed gene lists using the GSEA software (parameters: Run GSEAPreranked, Collapse/Remap- No_Collapse)4. GSEA results were interpreted and visualized using scripts provided by the Gryder lab1.Volcano plots were generated using DESeq2v1.41.1 and visualized with the ggplot2 R packages5,6. […]

HDAC5 = HDAC5 (Homo sapiens, UniProt Q9UQL6); experiment: HDAC isoform inhibition (BPS Bioscience)
[2] = Plasma stability (Cyprotex); type: in vitro ADME
Description: as §1, §2, §3, §4, §5

Chain of HDAC5 (Q9UQL6 whole entry, canonical isoform): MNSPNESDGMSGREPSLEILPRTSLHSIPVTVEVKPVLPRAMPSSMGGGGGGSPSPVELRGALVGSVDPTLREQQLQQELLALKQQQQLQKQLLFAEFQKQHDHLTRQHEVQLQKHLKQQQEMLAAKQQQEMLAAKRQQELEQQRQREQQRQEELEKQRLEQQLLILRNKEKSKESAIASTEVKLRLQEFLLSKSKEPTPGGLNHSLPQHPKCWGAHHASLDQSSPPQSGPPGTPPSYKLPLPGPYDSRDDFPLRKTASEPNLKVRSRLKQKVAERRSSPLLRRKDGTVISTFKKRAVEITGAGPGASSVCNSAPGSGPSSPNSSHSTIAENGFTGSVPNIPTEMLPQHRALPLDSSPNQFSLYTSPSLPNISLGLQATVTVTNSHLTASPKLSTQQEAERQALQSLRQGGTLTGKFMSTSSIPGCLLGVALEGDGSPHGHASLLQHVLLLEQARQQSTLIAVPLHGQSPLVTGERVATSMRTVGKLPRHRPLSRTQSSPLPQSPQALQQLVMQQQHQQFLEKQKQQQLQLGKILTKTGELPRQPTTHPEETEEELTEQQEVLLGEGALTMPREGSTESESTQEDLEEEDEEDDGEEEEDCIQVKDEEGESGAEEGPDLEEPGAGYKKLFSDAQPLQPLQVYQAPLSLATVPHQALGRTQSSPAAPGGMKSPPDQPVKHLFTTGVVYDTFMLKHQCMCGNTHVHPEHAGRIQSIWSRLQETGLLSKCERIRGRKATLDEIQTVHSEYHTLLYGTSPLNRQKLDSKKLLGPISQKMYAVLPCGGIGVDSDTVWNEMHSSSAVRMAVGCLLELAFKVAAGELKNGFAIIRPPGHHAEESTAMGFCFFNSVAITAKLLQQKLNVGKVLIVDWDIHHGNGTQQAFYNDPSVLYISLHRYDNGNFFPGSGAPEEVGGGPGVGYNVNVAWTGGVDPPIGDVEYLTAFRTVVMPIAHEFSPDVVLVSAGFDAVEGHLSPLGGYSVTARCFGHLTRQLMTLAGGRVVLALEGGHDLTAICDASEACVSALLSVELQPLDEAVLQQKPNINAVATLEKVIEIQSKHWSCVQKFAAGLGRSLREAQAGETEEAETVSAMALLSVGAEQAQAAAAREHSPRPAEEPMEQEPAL
Chain of hERG (Q12809 whole entry): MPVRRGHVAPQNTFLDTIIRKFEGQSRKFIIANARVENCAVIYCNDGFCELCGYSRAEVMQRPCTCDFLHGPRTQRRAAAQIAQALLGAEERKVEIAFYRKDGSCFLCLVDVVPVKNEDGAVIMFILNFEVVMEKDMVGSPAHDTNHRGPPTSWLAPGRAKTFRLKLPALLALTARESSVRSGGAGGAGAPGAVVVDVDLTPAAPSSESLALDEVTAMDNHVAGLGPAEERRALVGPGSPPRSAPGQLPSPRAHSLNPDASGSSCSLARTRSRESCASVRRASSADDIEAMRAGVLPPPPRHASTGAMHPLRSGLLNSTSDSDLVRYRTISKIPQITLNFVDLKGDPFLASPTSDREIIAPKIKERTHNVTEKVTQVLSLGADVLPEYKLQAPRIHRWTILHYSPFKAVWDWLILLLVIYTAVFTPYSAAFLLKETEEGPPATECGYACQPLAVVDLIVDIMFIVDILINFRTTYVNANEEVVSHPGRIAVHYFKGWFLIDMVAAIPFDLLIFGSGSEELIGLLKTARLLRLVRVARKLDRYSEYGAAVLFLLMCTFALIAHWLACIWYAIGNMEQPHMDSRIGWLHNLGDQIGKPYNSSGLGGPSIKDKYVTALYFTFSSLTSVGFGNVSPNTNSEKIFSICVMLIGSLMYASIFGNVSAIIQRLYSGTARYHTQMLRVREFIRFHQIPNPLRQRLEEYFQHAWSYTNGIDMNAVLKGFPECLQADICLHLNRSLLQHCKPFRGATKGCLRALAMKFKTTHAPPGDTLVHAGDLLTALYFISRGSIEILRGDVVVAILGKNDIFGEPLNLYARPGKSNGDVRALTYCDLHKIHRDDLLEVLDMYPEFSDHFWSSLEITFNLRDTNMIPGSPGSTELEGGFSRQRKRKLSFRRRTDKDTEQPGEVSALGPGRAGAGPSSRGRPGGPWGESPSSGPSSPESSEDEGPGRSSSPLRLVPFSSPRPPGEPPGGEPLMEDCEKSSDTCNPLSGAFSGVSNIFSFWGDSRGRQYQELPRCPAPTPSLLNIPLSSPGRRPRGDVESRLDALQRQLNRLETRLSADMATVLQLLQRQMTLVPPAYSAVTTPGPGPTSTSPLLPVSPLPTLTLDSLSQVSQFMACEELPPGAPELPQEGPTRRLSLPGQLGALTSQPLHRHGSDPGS

Q: For O=C(CCCCCCn1cc(-c2ccc(O[C@H]3O[C@H](CO)[C@@H](O)[C@H](O)[C@H]3O)cc2)nn1)NO [STR-V-53], which “Body weight as an indicator of toxicity” value (healthy C57Bl/6 mice) is on record?
A: no significant body weight loss

Q: What about the “Tumor growth inhibition (TGI)” value ([1]; 25 mg/kg daily i.p. for 21 days) of the same molecule?
A: 60%

Q: And the “Tumor growth inhibition (TGI)” value ([1]; 50 mg/kg daily i.p. for 21 days)?
A: 68%

Q: And the hERG inhibition (hERG)?
A: no inhibition

Q: And the “NES, G2/M checkpoint (Hallmark GSEA)” value (Hep-G2 cells; 2× IC50 (20 μM))?
A: −2.2

Q: What about the “NES, MYC targets v1 (Hallmark GSEA)” value (Hep-G2 cells; 2× IC50 (20 μM)) of the same molecule?
A: −2.3

Q: And the “NES, MYC targets v2 (Hallmark GSEA)” value (Hep-G2 cells; 2× IC50 (20 μM))?
A: −2.6

Q: What about the “NES, PI3K/Akt/mTOR signaling (Hallmark GSEA)” value (Hep-G2 cells; 2× IC50 (20 μM)) of the same molecule?
A: −1.7

Q: What about the “NES, antimicrobial humoral immune response mediated by an antimicrobial peptide (GOBP GSEA)” value (Hep-G2 cells; 2× IC50 (20 μM)) of the same molecule?
A: 1.9

Q: What about the “NES, cytokine-mediated signaling pathway (GOBP GSEA)” value (Hep-G2 cells; 2× IC50 (20 μM)) of the same molecule?
A: −1.4

Q: And the “NES, glucose-regulated transcription genes (GOBP GSEA)” value (Hep-G2 cells; 2× IC50 (20 μM))?
A: −1.8

Q: What about the “NES, humoral immune response (GOBP GSEA)” value (Hep-G2 cells; 2× IC50 (20 μM)) of the same molecule?
A: 1.7

Q: And the “NES, innate immune response in the mucosa (GOBP GSEA)” value (Hep-G2 cells; 2× IC50 (20 μM))?
A: 2.3

Q: What about the “NES, p53 pathway (Hallmark GSEA)” value (Hep-G2 cells; 2× IC50 (20 μM)) of the same molecule?
A: 1.6

Q: And the “NES, positive regulation of glucose import (GOBP GSEA)” value (Hep-G2 cells; 2× IC50 (20 μM))?
A: −1.6

Q: And the “NES, G2/M checkpoint (Hallmark GSEA)” value (Hep-G2 cells; IC50 (10 μM))?
A: −2.9

Q: And the “NES, MYC targets v1 (Hallmark GSEA)” value (Hep-G2 cells; IC50 (10 μM))?
A: −2.6

Q: And the “NES, MYC targets v2 (Hallmark GSEA)” value (Hep-G2 cells; IC50 (10 μM))?
A: −2.3

Q: And the “NES, antimicrobial humoral immune response mediated by an antimicrobial peptide (GOBP GSEA)” value (Hep-G2 cells; IC50 (10 μM))?
A: 1.9

Q: What about the “NES, glucose-regulated transcription genes (GOBP GSEA)” value (Hep-G2 cells; IC50 (10 μM)) of the same molecule?
A: −1.8

Q: And the “NES, humoral immune response (GOBP GSEA)” value (Hep-G2 cells; IC50 (10 μM))?
A: 1.9

Q: And the “NES, innate immune response in the mucosa (GOBP GSEA)” value (Hep-G2 cells; IC50 (10 μM))?
A: 2.1

Q: What about the IC50 (HDAC5) of the same molecule?
A: 7 µM

Q: And the half-life ([2]; human plasma)?
A: > 1200 min

Q: What about the half-life ([2]; mouse, murine plasma) of the same molecule?
A: 46 min
